Measurements published in PubChem BioAssay (NCI).
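Dose response: 5 concentrations. Exposure: 48 h. Format: 96-well plates. Endpoint: linear interpolation; highest concentration if not reached. Abbreviation: GI50, concentration required for 50% inhibition of growth. TGI denotes the concentration required for complete inhibition of growth.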

Experiments:
Experiment in all cases: NCI-60 cell line screen, 48 h
[1] = test system: SNB-75 CNS
[2] = test system: MALME-3M melanoma
[3] = test system: MCF7 breast
[4] = test system: IGROV1 ovarian
[5] = test system: SK-MEL-28 melanoma
[6] = test system: HCC-2998 colon
[7] = test system: OVCAR-4 ovarian
[8] = test system: SR leukemia
[9] = test system: SN12C renal
[10] = test system: PC-3 prostate
[11] = test system: BT-549 breast
[12] = test system: K-562 leukemia
[13] = test system: HT29 colon
[14] = test system: SF-539 CNS
[15] = test system: UACC-62 melanoma
[16] = test system: HCT-15 colon
[17] = test system: EKVX NSCLC
[18] = test system: MDA-MB-231 breast
[19] = test system: NCI/ADR-RES ovarian
[20] = test system: HOP-92 NSCLC
[21] = test system: SW-620 colon
[22] = test system: RPMI-8226 leukemia
[23] = test system: MDA-MB-435
[24] = test system: UACC-257 melanoma
[25] = test system: U251 CNS
[26] = test system: A498 renal
[27] = test system: HCT-116 colon
[28] = test system: HOP-62 NSCLC
[29] = test system: UO-31 renal
[30] = test system: NCI-H460 lung
[31] = test system: HL-60(TB) leukemia
[32] = test system: CAKI-1 renal
[33] = test system: ACHN renal
[34] = test system: KM12 colon
[35] = test system: A549 NSCLC
[36] = test system: DU-145 prostate
[37] = test system: SK-MEL-5 melanoma
[38] = test system: OVCAR-8 ovarian
[39] = test system: M14 melanoma
[40] = test system: NCI-H23 lung
[41] = test system: TK-10 renal
[42] = test system: MOLT-4 leukemia
[43] = test system: NCI-H522 lung
[44] = test system: OVCAR-3 ovarian
[45] = test system: OVCAR-5 ovarian
[46] = test system: SF-268 CNS
[47] = test system: SF-295 CNS
[48] = test system: CCRF-CEM leukemia
[49] = test system: NCI-H226 lung
[50] = test system: 786-0 renal
[51] = test system: T-47D breast
[52] = test system: COLO 205 colon
[53] = test system: SK-MEL-2 melanoma
[54] = test system: SK-OV-3 ovarian
[55] = test system: MDA-MB-468 breast
[56] = test system: SNB-19 CNS
[57] = test system: LOX IMVI melanoma
[58] = test system: RXF 393 renal

Oc1ccc(Cl)c(Nc2nc(SCCN3CCOCC3)nc3c2cnn3CC(Cl)c2ccc(Br)cc2)c1 (stereo unspecified)
GI50 [1]: 1390 nM | TGI [1]: 6.13 µM | GI50 [2]: 3.7 µM | TGI [2]: 19.9 µM | GI50 [3]: 2930 nM | TGI [3]: > 100 µM | GI50 [4]: 2820 nM | TGI [4]: 10.3 µM | GI50 [5]: 6.03 µM | TGI [5]: > 100 µM | GI50 [6]: 4.1 µM | TGI [6]: 25.4 µM | GI50 [7]: 4.91 µM | TGI [7]: > 100 µM | GI50 [8]: 12.8 µM | TGI [8]: > 100 µM | GI50 [9]: 3.17 µM | TGI [9]: > 100 µM | GI50 [10]: 3.08 µM | TGI [10]: > 100 µM | GI50 [11]: 26.3 µM | TGI [11]: > 100 µM | GI50 [12]: 378 nM | TGI [12]: > 100 µM | GI50 [13]: 6.22 µM | TGI [13]: 24.5 µM | GI50 [14]: 4.43 µM | TGI [14]: > 100 µM | GI50 [15]: 5.44 µM | TGI [15]: 24 µM | GI50 [16]: 3.27 µM | TGI [16]: > 100 µM | GI50 [17]: 4.64 µM | TGI [17]: > 100 µM | GI50 [18]: 3.77 µM | TGI [18]: 17.3 µM | GI50 [19]: 3.37 µM | TGI [19]: > 100 µM | GI50 [20]: 2570 nM | TGI [20]: 9.21 µM | GI50 [21]: 11.3 µM | TGI [21]: > 100 µM | GI50 [22]: 3.54 µM | TGI [22]: > 100 µM | GI50 [23]: 4.64 µM | TGI [23]: > 100 µM | GI50 [24]: 13.7 µM | TGI [24]: > 100 µM | GI50 [25]: 5.75 µM | TGI [25]: > 100 µM | GI50 [26]: 12.1 µM | TGI [26]: > 100 µM | GI50 [27]: 3.83 µM | TGI [27]: > 100 µM | GI50 [28]: 6.24 µM | TGI [28]: > 100 µM | GI50 [29]: 2040 nM | TGI [29]: > 100 µM | GI50 [30]: 4.12 µM | TGI [30]: > 100 µM | GI50 [31]: 6.62 µM | TGI [31]: > 100 µM | GI50 [32]: 6.63 µM | TGI [32]: > 100 µM | GI50 [33]: 3.62 µM | TGI [33]: > 100 µM | GI50 [34]: 5.83 µM | TGI [34]: > 100 µM | GI50 [35]: 4.75 µM | TGI [35]: 54.1 µM | GI50 [36]: 6.33 µM | TGI [36]: > 100 µM | GI50 [37]: 3.95 µM | TGI [37]: 15.2 µM | GI50 [38]: 3.89 µM | TGI [38]: > 100 µM | GI50 [39]: 4.49 µM | TGI [39]: > 100 µM | GI50 [40]: 8.67 µM | TGI [40]: 47.9 µM | GI50 [41]: 18.2 µM | TGI [41]: 54.7 µM | GI50 [42]: 3.53 µM | TGI [42]: > 100 µM | GI50 [43]: 2920 nM | TGI [43]: > 100 µM | GI50 [44]: 5.5 µM | TGI [44]: > 100 µM | GI50 [45]: 7.08 µM | TGI [45]: 84.6 µM | GI50 [46]: 4.34 µM | TGI [46]: > 100 µM | GI50 [47]: 3.1 µM | TGI [47]: 19.1 µM | GI50 [48]: 3.17 µM | TGI [48]: > 100 µM | GI50 [49]: 5.06 µM | TGI [49]: > 100 µM | GI50 [50]: 15.4 µM | TGI [50]: 93.3 µM | GI50 [51]: 2880 nM | TGI [51]: > 100 µM | GI50 [52]: 18.6 µM | TGI [52]: 42.3 µM | GI50 [53]: 10.1 µM | TGI [53]: 36.9 µM | GI50 [54]: 17.1 µM | TGI [54]: > 100 µM | GI50 [55]: 2200 nM | TGI [55]: 6.28 µM | GI50 [56]: 8.16 µM | TGI [56]: > 100 µM | GI50 [57]: 2970 nM | TGI [57]: 10.9 µM | GI50 [58]: 1110 nM | TGI [58]: 4.77 µM
